According to US4272437A, “Antibacterial agents, and 4-thio azetidinone intermediates” (priority 1979, dated 1981):
In brackets after ≈: the same amount, converted by molar mass. Several values for one entry are separate records, joined by “and”; a condition that tells them apart may be missing. Equal values may be shown once.

What was measured:
[1] = test system: Ent. cloacae A-9659; assay: MIC, tube dilution, Enterobacter cloacae A9659; assay type: cell-based; conditions: Enterobacter cloacae A9659; overnight 37° C.
Description: (§1) Representative compounds of the present invention were subjected to in vitro antibiotic screening against a variety of microorganisms.

[2] = test system: Ps. aeruginosa A-21213; assay: MIC, tube dilution, Pseudomonas aeruginosa A21213; assay type: cell-based; conditions: overnight 37° C.; for MIC: Pseudomonas aeruginosa, A21213, Pseudomonas aeruginosa A21213, read-out: Minimum Inhibitory Concentration (M.I.C.)
Description: as §1

[3] = test system: Klebsiella species A20468; assay: MIC, tube dilution, Klebsiella species A20468; assay type: cell-based; conditions: Klebsiella species (K. pneumoniae) A20468, overnight 37° C.; for MIC: read-out: Minimum Inhibitory Concentration (M.I.C.)
Description: as §1

[4] = test system: E. coli A15119; assay: In vivo protection of mice, lethal infection with E. coli A15119; conditions: Escherichia coli, IM, 2 treatments, 7.8 × 10^5 organisms, read-out: PD50
Experimental: (§2) Representative compounds of the present invention were also tested in vivo in mice and their PD50 (dose of compound in mg/kg required to protect 50% of the treated mice against an otherwise lethal infection of a micro-organism) values determined with respect to the test organisms shown below.

[5] = test system: S. aureus A9537; assay: In vivo protection of mice, lethal infection with S. aureus A9537; conditions: IM, 2 treatments, 9.1 × 10^5 organisms; listed as Ex. 98 (isomer A)
Experimental: as §2

[6] = test system: Pr. mirabilis A-9900; assay: MIC, tube dilution, Proteus mirabilis A9900; assay type: cell-based; conditions: Proteus mirabilis A9900; overnight 37° C.
Description: as §1

[7] = test system: E. coli A-20341-1; assay: MIC, tube dilution, Escherichia coli A20341-1; assay type: cell-based; conditions: overnight 37° C.; for MIC: Escherichia coli, A203411, E. coli A20341-1, read-out: Minimum Inhibitory Concentration (M.I.C.)
Description: as §1

[8] = test system: Ps. aeruginosa A-9843A; assay: MIC, tube dilution, Pseudomonas aeruginosa A9843A; assay type: cell-based; conditions: overnight 37° C.
Description: as §1

[9] = test system: E. coli A-15119; assay: MIC, tube dilution, Escherichia coli A15119; assay type: cell-based; conditions: overnight 37° C.
Description: as §1

[10] = test system: Str. pneumoniae A-9585; assay: MIC, tube dilution, Streptococcus pneumoniae A9585; assay type: cell-based; conditions: Str. pneumoniae A9585; overnight 37° C., Nutrient Broth
Description: as §1

[11] = test system: Ent. cloacae A-9656; assay: MIC, tube dilution, Enterobacter cloacae A9656; assay type: cell-based; conditions: Enterobacter cloacae A9656; overnight 37° C.
Description: as §1

[12] = test system: Staph. aureus A-9537 and 50% serum; assay: MIC, tube dilution, Staph. aureus A9537 + 50% serum; assay type: cell-based, Staphylococcus aureus; conditions: overnight 37° C.
Description: as §1

[13] = test system: K. pneumoniae A-15130; assay: MIC, tube dilution, Klebsiella pneumoniae A15130; assay type: cell-based; conditions: overnight 37° C.
Description: as §1

[14] = test system: Staph. aureus (Pen-Res) A-9606; assay: MIC, tube dilution, Staphylococcus aureus A9606 (Pen-Res); assay type: cell-based; conditions: Staph. aureus A9606 (Pen-Res), overnight 37° C.
Description: as §1

[15] = test system: Proteus rettgeri A21203; assay: MIC, tube dilution, Proteus rettgeri A21203; assay type: cell-based; conditions: Proteus rettgeri A21203; overnight 37° C.
Description: as §1

[16] = test system: Str. pyogenes A-9604; assay: MIC, tube dilution, Streptococcus pyogenes A9604; assay type: cell-based; conditions: Str. pyogenes A9604; overnight 37° C., Nutrient Broth
Description: as §1

[17] = test system: Ser. marcescens A-20019; assay: MIC, tube dilution, Serratia marcescens A20019; assay type: cell-based; conditions: Serratia marcescens A20019; overnight 37° C.
Description: as §1

[18] = test system: Proteus vulgaris A21559; assay: MIC, tube dilution, Proteus vulgaris A21559; assay type: cell-based; conditions: Proteus vulgaris A21559; overnight 37° C.
Description: as §1

[19] = test system: Pr. morganii A-15153; assay: MIC, tube dilution, Proteus morganii A15153; assay type: cell-based; conditions: Proteus morganii A15153; overnight 37° C.
Description: as §1

[20] = test system: Staph. aureus A-9537; assay: MIC, tube dilution, Staphylococcus aureus A9537; assay type: cell-based; conditions: Staph. aureus A9537; overnight 37° C., Nutrient Broth
Description: as §1

[21] = test system: Str. faecalis A-20688; assay: MIC, tube dilution, Streptococcus faecalis A20688; assay type: cell-based; conditions: overnight 37° C.; for Minimum Inhibitory Concentration (M.I.C.): Str. faecalis A20688
Description: as §1

[22] = test system: Staph. aureus (Meth-Res) A-15097; assay: MIC, tube dilution, Staphylococcus aureus A15097 (Meth-Res); assay type: cell-based; conditions: Staph. aureus A15097 (Meth-Res), overnight 37° C.; for MIC: Staphylococcus aureus, read-out: Minimum Inhibitory Concentration (M.I.C.)
Description: as §1

[23] = test system: Pr. vulgaris A-9716; assay: MIC, tube dilution, Proteus vulgaris / Proteus mirabilis A9716; assay type: cell-based, Proteus vulgaris (name changed to Proteus mirabilis); conditions: Proteus vulgaris / Proteus mirabilis A9716; overnight 37° C.
Description: as §1

[24] = test system: Proteus vulgaris A9555; assay: MIC, tube dilution, Proteus vulgaris (mirabilis) A9555; assay type: cell-based; conditions: overnight 37° C., read-out: Minimum Inhibitory Concentration (M.I.C.)
Description: as §1

[25] = stability in aqueous solution followed by UV; assay type: physicochemical; design: unit not given here; conditions: UV, aqueous solution
Experimental: To a solution of penem 3 (2.4 g, 6.89 mmoles) in tetrahydrofuran-ether-water mixture (1:1:1, 165 ml) was added 30% palladium on diatomaceous earth (4.8 g). The reaction mixture was hydrogenated under 45 p.s.i. at 23° C. for 2.5 h and filtered over celite pad. The filtrate and washings were combined, washed twice with ether, centrifugated and filtered several times to give a clear solution which was lyophilized; 0.622 g, 45%. The crystallization of the compound was induced by the addition of water (0.8 ml); the suspension was centrifuged and the water was removed leaving an orange solid. This solid was washed twice with water and a slightly yellow solid was obtained after drying: […], 19.8%. UV λmax^H.sbsp.2^O : 307 (ε=4318) and 257 (ε=2650). Some crude starting material (1.2 g, 50%) was recovered. The compound (50 mg) can also be purified by column chromatography [Sephadex G10, column size: 1.6×100 cm, flow rate: 10 ml/h, eluent: distilled water, fraction volume: 1.5 ml, detector: refractive index]. UV λmax^H.sbsp.2^O 307 (ε=3597) and 255 (ε=2424).
The stability of the compound in aqueous solution was checked by:
A sample of compound 4 was kept at 23° C. for 3 days and the UV was taken: UV λmax^H.sbsp.2^O : 307 (ε=3055) and 255 (ε=2008).
To a solution of ester 6 (200 mg, 0.5 mmole) in tetrahydrofuran (10 ml) was added ether (10 ml), water (10 ml) and 30% palladium on diatomaceous earth (200 mg). The reaction mixture was hydrogenated in a Parr apparatus under 35 p.s.i. at 25° C. for 2 h 30 min and filtered over a celite pad. The filtrate was washed twice with ether and the aqueous solution was lyophilized, giving a yellow powder which was purified by column chromatography [Sephadex G-10, bed dimensions: 100×1.6 cm, flow rate: 12 ml/h, eluent: distilled water, fraction volume: 1.5 ml detector: refractive index]. The right fractions were combined and lyophilized to give a white powder (10 mg, 8.8%). UV λmax^H.sbsp.2 O 301 (ε=4930), 258 (ε=3290). IR (KBr) cm^-1 :1770 (c=o of β-lactam) and 1580 [drawing 587] The stability of compound 7 in aqueous solution was followed by UV; after 6 h: 301 (4795) and 258 (3105) and after 72 h: 301 (4565) and 258 (3150). […]

Row | SMILES | Minimum Inhibitory Concentration (M.I.C.) [1] [µg/mL] | MIC [2] [µg/mL] | MIC [3] [µg/mL] | Minimum Inhibitory Concentration (M.I.C.) [6] | MIC [7] [µg/mL] | Minimum Inhibitory Concentration (M.I.C.) [10] | Minimum Inhibitory Concentration (M.I.C.) [11] [µg/mL] | Minimum Inhibitory Concentration (M.I.C.) [12] | Minimum Inhibitory Concentration (M.I.C.) [15] | Minimum Inhibitory Concentration (M.I.C.) [16] | Minimum Inhibitory Concentration (M.I.C.) [17] | Minimum Inhibitory Concentration (M.I.C.) [19] | Minimum Inhibitory Concentration (M.I.C.) [20] | Minimum Inhibitory Concentration (M.I.C.) [21] [µg/mL] | MIC [22] [µg/mL] | further results
1 | NC1CCC(C2=C(C(=O)O)N3C(=O)C[C@H]3S2)C1 (single isomer, unassigned) [98 isomer A, 2-(3-Aminocyclopentyl)-penem-3-carboxylic acid] | 4 | > 63 | > 63 | 1 µg/mL | 16 (≈ 62.9 µM) | .004 µg/mL | 2 | .13 µg/mL | 1 µg/mL | .004 µg/mL | 2 µg/mL | 4 µg/mL | .03 µg/mL | 4 | > 63 | ED50 [4]: 17.4 mg/kg; PD50 [5]: 0.04 mg/kg/treatment; MIC ([8]; Pseudomonas aeruginosa, A9843A, read-out: Minimum Inhibitory Concentration (M.I.C.), Pseudomonas aeruginosa A9843A): > 63 µg/mL; MIC ([9]; Escherichia coli, A15119, E. coli A15119, read-out: Minimum Inhibitory Concentration (M.I.C.)): 1 µg/mL (≈ 3.93 µM); MIC ([13]; Klebsiella pneumoniae, A15130, K. pneumoniae A15130, read-out: Minimum Inhibitory Concentration (M.I.C.)): 4 µg/mL (≈ 15.7 µM); MIC ([14]; Staphylococcus aureus, read-out: Minimum Inhibitory Concentration (M.I.C.)): 32 µg/mL (≈ 126 µM); Minimum Inhibitory Concentration (M.I.C.) [18]: 2 µg/mL
2 | NCCCC1=C(C(=O)O)N2C(=O)CC2S1 (stereo not shown) [Example 51, 2-(γ-Aminopropyl)penem-3-carboxylic Acid] | 16 | 63 (≈ 276 µM) | > 63 | 16 µg/mL and 8 µg/mL | > 63 | .25 µg/mL | 32 | 63 µg/mL and > 32 µg/mL | 16 µg/mL and 8 µg/mL | 2 µg/mL and 1 µg/mL | 32 µg/mL and 16 µg/mL | 32 µg/mL and 16 µg/mL | 2 µg/mL and 1 µg/mL | 125 | 63 (≈ 276 µM) | Minimum Inhibitory Concentration (M.I.C.) ([2]; Pseudomonas aeruginosa A21213): 125 µg/mL; Minimum Inhibitory Concentration (M.I.C.) [3]: > 125 µg/mL; Minimum Inhibitory Concentration (M.I.C.) ([7]; E. coli A20341-1): 125 µg/mL; Minimum Inhibitory Concentration (M.I.C.) [23]: 16 µg/mL; Minimum Inhibitory Concentration (M.I.C.) ([8]; Pseudomonas aeruginosa A9843A): 125 µg/mL and 63 µg/mL; Minimum Inhibitory Concentration (M.I.C.) ([9]; E. coli A15119): 16 µg/mL and 8 µg/mL; Minimum Inhibitory Concentration (M.I.C.) ([13]; K. pneumoniae A15130): 32 µg/mL; Minimum Inhibitory Concentration (M.I.C.) [14]: 63 µg/mL and 32 µg/mL; MIC [24]: 63 µg/mL (≈ 276 µM); ε at 258 in aqueous solution (stability) ([25]; after 6 h): 3105; ε at 301 in aqueous solution (stability) ([25]; after 6 h): 4795; ε at 258 in aqueous solution (stability) ([25]; after 72 h): 3150; ε at 301 in aqueous solution (stability) ([25]; after 72 h): 4565; MIC ([21]; Enterococcus faecalis, A20688, Str. faecalis A20688, read-out: Minimum Inhibitory Concentration (M.I.C.)): 63 µg/mL (≈ 276 µM); Minimum Inhibitory Concentration (M.I.C.) [22]: 125 µg/mL
